Assay results published in patent US7833795B2, “Assessment of cardiovascular risk using isoprostane biomarkers and COX-2 selective inhibitors” (The Trustees of the University of Pennsylvania, priority 2004, dated 2010).

What was measured:
[1] = system: Male Fisher 344 rats; experiment: Urinary free plus esterified 8-iso-PGF2α by immunoassay; type: in vivo, rat; settings: for Free plus esterified 8-iso PGF2a (by immunoassay): urine
Method: (§1) Animals and treatment protocol: Male Fisher 344 rats (260-280 g) obtained from Charles River Laboratories (Raleigh, N.C.) were used in all experiments. The animals were housed three to a cage. Autoclaved hardwood bedding was used in solid-bottom polycarbonate cages with filter tops. Animal rooms were maintained at 20-25° C. with 35-70% relative humidity with alternating 12-hour light and dark cycles. The rats had free access to deionized, reverse-osmosis-treated water and received autoclaved NIH 31 rodent chow (Zeigler Bros., Gardners, Pa.) ad libitum. For all experiments, rats were fasted overnight and then administered intraperitoneal injections of carbon tetrachloride in canola oil. Control rats received an equal volume of canola oil. Fasting continued throughout the experiment. Rats were anesthetized with Nembutal (0.1 ml/100 g body weight) and 5 ml blood was removed from the dorsal aorta proximal to its bifurcation into the common iliac arteries.
(§2) Indomethacin pretreatment: The indomethacin regimen used has been previously shown to inhibit COX activity in rats by 90% (dose of 5 mg/kg s.c. 24 hours, 12 hours, and 2 hours prior to the injection of CCl4) (Jackson, 1989, J. Pharmacol. Exp. Ther. 250: 9-21). An additional booster dose was injected 8 hours after the last injection of CCl4 for the measurements performed 16 hours after treatment with CCl4.
(§3) Meclofenamic acid pretreatment: Meclofenamic acid was injected at a dose of 5 mg/kg i.p. 12 h and 2 h prior to the injection of CCl4.
(§4) Carbon tetrachloride (CCL4) treatment: Animals from each of the three dose groups (Control-canola oil, 120 mg/kg CCl4 i.p. and 1200 mg/kg CCl4 i.p.) were investigated at three time points (2, 7, and 16 hours after CCl4 injection). Indomethacin-pretreated rats were also investigated at the same three time points, and the meclofenamic acid-pretreated rats were investigated at one time point (7 hours). Each group consisted of five rats for each analysis, except the meclofenamic acid pretreatment group which consisted of six rats. Animal treatment, sample preparation, assessment of liver histology and serum enzyme activities are described elsewhere (Kadiiska et al., 2000, Free Radic. Biol. Med. 28: 838-845; Jackson, 1989, J. Pharmacol. Exp. Ther. 250: 9-21) and were carried out at NIEHS, Research Triangle Park, N.C.
(§5) Urine sample preparation: The day prior to treatment, both experimental and control animals were placed in stainless steel metabolic cages especially designed for urine collection. For Experimental Example 2, animals were placed in metabolic cages immediately after the last injection of indomethacin or meclofenamic acid. Urine was collected (in dark vials) from the animals during the following intervals: 2 to 7 hours and 7 to 16 hours after CCl4 or canola oil (controls) treatment. Urine samples from indomethacin-pretreated rats were collected from 2 to 7 hours and 7 to 16 hours after the injection of CCl4, whereas samples from meclofenamic-acid-pretreated rats were collected only from 2 to 7 hours after the injection. All urine samples were immediately frozen on dry ice and stored at −70° C.
Urinary 8-iso-PGF2α concentrations were measured by the competitive immunoassay procedure in which 8-iso-PGF2α conjugated to alkaline phosphatase competed with the test analyte for antibody specific for the isoprostane. The anti-8-iso-PGF2α antibody was captured by anti-Fc antibodies immobilized on a microtiter plate. The assay was developed by Assay Designs, Inc., Ann Arbor, Mich. and performed at OXIS Research, Portland, Oreg.
In an additional method not recited in Example 1, an immunoassay was used to measure the sum of free plus esterified 8-iso-PGF2α. The immunoassay used anti-8-iso-PGF2α antibody was developed by Assay Designs, Inc., Ann Arbor, Mich., and performed at Oxis Research, Portland, Oreg.

[2] = system: Male Fisher 344 rats; experiment: Urinary MDA by HPLC with spectrophotometry; type: in vivo, rat; settings: for MDA (by HPLC with spectrophotometry): urine
Method: as §1, §2, §3, §4, §5
Urinary MDA was analyzed using high pressure liquid chromatography (HPLC). To 500 μl urine samples, 25 μl BHT and 750 μl 0.5% TBA solution were added, in this order. Samples were incubated at 60° C. for 60 minutes. After cooling, chloroform (750 μl) was added and mixed well. Following centrifugation, the aqueous layer was removed and used for HPLC analysis (column […]; mobile phase, 6:4(v/v) 0.04 M acetate buffer (pH 5.5)/MeOH; detection, 532 nm). The procedure was developed and performed by OXIS Research, Portland, Oreg.

ClC(Cl)(Cl)Cl [CCl4, Carbon tetrachloride]
Free plus esterified 8-iso PGF2a (by immunoassay) ([1]; CCl4 120 mg/kg i.p., 7 h): 25.7 ng/mgcreatinine
Free plus esterified 8-iso PGF2a (by immunoassay) ([1]; CCl4 120 mg/kg i.p., 16 h): 17.4 ng/mgcreatinine
Free plus esterified 8-iso PGF2a (by immunoassay) ([1]; CCl4 1200 mg/kg i.p., 7 h): 57.0 ng/mgcreatinine
Free plus esterified 8-iso PGF2a (by immunoassay) ([1]; CCl4 1200 mg/kg i.p., 16 h): 30.4 ng/mgcreatinine
increase of urinary 8-iso-PGF2α (immunoassay) ([1]; high dose CCl4, 7 h): 10 fold
increase of urinary 8-iso-PGF2α (immunoassay) ([1]; high dose CCl4, 16 h): 6 fold
MDA (by HPLC with spectrophotometry) ([2]; CCl4 120 mg/kg i.p., 7 h): 2.01 nmol/mg creatinine
MDA (by HPLC with spectrophotometry) ([2]; CCl4 120 mg/kg i.p., 16 h): 1.54 nmol/mg creatinine
MDA (by HPLC with spectrophotometry) ([2]; CCl4 1200 mg/kg i.p., 7 h): 2.61 nmol/mg creatinine
MDA (by HPLC with spectrophotometry) ([2]; CCl4 1200 mg/kg i.p., 16 h): 2.16 nmol/mg creatinine
increase of urinary MDA ([2]; higher dose of CCl4, urine collected 7 hours after treatment): 3 fold
